Patent publication US20160095837A1, “MODULATION OF MITOCHONDRIAL CALCIUM UNIPORTER ACTIVITY FOR TREATING AND PREVENTING ARRHYTHMIAS” (priority 2014, published 2016)

Legend:
Assay type in all cases: cell-based, mouse
[1] = tested on: SERCA2a activity ([Ca2+]cyto decline); assay: Cytoplasmic Ca2+ transient decay (Fura-2 AM) in SAN cells
Protocol: (§1) SAN cells were placed in Tyrode's solution at 36±0.5° C. and were identified by their characteristic morphology (spindle or spider shape) and spontaneous activity. SAN cells were identified electrophysiologically by spontaneous action potentials with a slow depolarizing phase 4 and the hyperpolarization-activated current (If).^27 Spontaneous action potentials, If and ICa were recorded using the perforated (amphotericin B or β-escin in studies requiring dialysis of Ru360 and/or ATP) patch-clamp technique^28 on single SAN cells at 36±0.5° C. in Tyrode's solution. Intracellular Ca^2+ transients were recorded from single SAN cells using Fura-2 AM excited at 340 nm and 380 nm and emitted and 510 nm. Endogenous NADH from single SAN cells was measured by excitation at 350 nm and recording emitted light at 460 nm.^29 Mitochondrial Ca^2+ was measured at 535 nm from mt-pericam expressing SAN cells exited at 415 nm^20. Mitochondrial Ca^2+ entry was measured in cell membrane permeabilized cardiomyocytes isolated from DN-MCU transgenic, wild type mice and from HEK293 cells using Calcium green-5N^30.
Cytosolic Ca^2+ levels were recorded from Fura-2-loaded cells, excited at wavelengths of 340 and 380 nm, and imaged with a 510 nm long-pass filter. Single isolated SAN cells were loaded with 0.1 μM Fura-2 AM for 20 minutes, and then perfused for 20 minutes to de-esterfy the Fura-2 AM in normal Tyrode's solution. After placement on a recording chamber, the cells were perfused in normal Tyrode's solution at 36° C.±0.5. Spindle-shaped, spontaneously beating cells were chosen for experiments. Action potential recording was performed simultaneously.

[2] = tested on: sinoatrial nodal (SAN) pacemaker cells; assay: Spontaneous action potential rate of single SAN cells (perforated patch clamp); settings: for SAN activity response to ISO: SR Ca2+ release eliminated by ryanodine or SERCA2a inhibited by thapsigargin; for SAN cell beating rate at baseline: no ISO (FIG. 10a)
Protocol: as §1
Isolation of single SAN cells from mice was performed according to previously published methods^22, 27, 31 with minor modifications. Mice were administered an intraperitoneal injection of avertin (20 μl/g) and monitored until unresponsive. The heart was excised and placed into Tyrode's solution (35° C.), consisting of (mM) 140 NaCl, 5.0 HEPES, 5.5 Glucose, 5.4 KCl, 1.8 CaCl2, and 1.0 MgCl2. The pH was adjusted to 7.4 with NaOH. […] The SAN was cut into smaller pieces, which were transferred and rinsed in a solution containing (mM) 140 NaCl, 5.0 HEPES, 5.5 Glucose, 5.4 KCl, 0.2 CaCl2, 0.5 MgCl2, 1.2 KH2PO4, 50 Taurine and 1 mg/ml bovine serum albumin (BSA), with pH adjusted to 7.4 using NaOH. SAN tissue pieces were digested in 5 ml of solution containing collagenase type I, elastase (Worthington), and protease type XIV (Sigma) for 20-30 min. The tissue was transferred to 10 ml of Kraft-Bruhe (KB) medium containing (mM) 100 potassium glutamate, 5.0 HEPES, 20 Glucose, 25 KCl, 10 potassium aspartate, 2.0 MgSO4, 10 KH2PO4, 20 taurine, 5 creatine, 0.5 EGTA, and 1 mg/ml BSA, with pH adjusted to 7.2 using KOH. The tissue was agitated using a glass pipette for 10 min. The cells were stored at 4° C. and studied within 7 hours.
SAN cells were placed in Tyrode's solution at 36±0.5° C. SAN cells were identified by their characteristic morphology (spindle or spider shape) and spontaneous activity in all single cell experiments. SAN cells were also identified electrophysiologically by typical spontaneous action potentials with slow depolarizing phase 4 and the hyperpolarization-activated current (If) in electrophysiological experiments.
Spontaneous action potentials (APs) and If were recorded using the perforated (amphotericin B or β-escin) patch-clamp technique^28 on single SAN cell at 36±0.5° C. in Tyrode's solution (0.5 mM BaCl2 was added to the bath solution when recording If^32). The pipette was filled with (mM) 130 potassium aspartate, 10 NaCl, 10 HEPES, 0.04 CaCl2, amphotericin B 240 μg/ml with pH adjusted to 7.2 with KOH. SAN cells with stable APs lasting at least 5 min were included in the experiments. β-escin 25 μM was substituted for amphotericin B to allow dialysis of Ru360 or ATP. When recording If, membrane potential was held at −35 mV, the voltage steps were applied for 5 s ranging from −125 mV to −45 mV in 10 mV increments or vice versa.^33 ICa was measured using the perforated patch technique at […] as previously described.^22 ICa was confirmed by its sensitivity to Nifedipine 5 μM. Depolarizing voltage pulses (300 ms in duration) to various potentials (−60 mV to 60 mV in 10 mV step) were applied after 50 ms at −40 mV to inactivate INa from a holding potential of −70 mV. […]

NADH = NADH autofluorescence in SAN cells; settings: ISO 100 nM
Protocol: as §1
The autofluorescence of endogenous NADH, which derives primarily from mitochondria,^29,35 was measured as described^29. NADH was excited at 350 nm (AT350/SOX, Chroma) and fluorescence was recorded at 460 nm (ET460/50m and T400LP, Chroma). […]

[3] = tested on: mitochondrial Ca2+ concentration ([Ca2+]mito); assay: Mitochondrial Ca2+ measurement with mt-pericam in cultured SAN cells; settings: ISO 100 nM
Protocol: as §1
Freshly isolated mouse SAN tissue was cut into small pieces and put into 35 mm tissue culture plates with DMEM. […] Expression of the recombinant ratio-5mt-pericam and DN-MCU in SAN cells was detected by GFP fluorescence. […]

[4] = ATP dialysis, SAN cells from mice expressing phospholamban N27A

Molecule: Nc1ncnc2c1ncn2[C@@H]1O[C@H](COP(=O)(O)OP(=O)(O)OP(=O)(O)O)[C@@H](O)[C@H]1O [ATP]
- Rate of [Ca2+]cyto decline after ISO with Ru360 and ATP co-dialysis ([1]; ATP 4 mM co-dialysis with Ru360, relative to ISO-stimulated values without Ru360): restored
- Rate of [Ca2+]cyto decline in N27A SAN cells [1, 4]: did not significantly increase
- SAN cell rate response to ISO, ATP dialysis 8 mM ([2]; ATP dialysis 8 mM): does not enhance
- SAN rate responses to ISO, ATP dialysis alone ([2]; ATP dialysis without Ru360): had no affect
- SAN action potential frequency in N27A SAN cells [2, 4]: did not significantly increase
- Inhibitory effect of Ru360 on SAN cell action potential frequency responses to ISO, with ATP co-dialysis ([2]; co-dialysis with ATP 4 mM and Ru360): reversed
- DN-MCU dependent loss of the ISO rate response, with ATP co-dialysis ([2]; cultured SAN cells expressing DN-MCU, ATP co-dialysis): rescued
- Basal SAN cell rates ([2]; dialysis, no ISO): neither Ru360 nor ATP had any affect

Molecule: CC(C)NCC(O)c1ccc(O)c(O)c1 (stereo not shown) [ISO, isoproterenol]
- Rate of decline in [Ca2+]cyto ([1]; ISO vs control bath solution): significantly increased
- Rate of action potential initiation ([2]; ISO, concentration-dependent): increased
- NADH fluorescence (NADH): increased
- [Ca2+]mito [3]: caused an increase

Molecule: C/C=C(/C)C(=O)O[C@H]1C(C)=C2[C@H]([C@@H]1OC(=O)CCCCCCC)[C@@](C)(OC(C)=O)C[C@H](OC(=O)CCC)[C@@]1(O)[C@H]2OC(=O)[C@@]1(C)O [thapsigargin]
- SAN activity response to ISO [2]: significantly reduced
- SAN cell beating rate at baseline [2]: reduce

Molecule: ryanodine
- SAN activity response to ISO [2]: significantly reduced
- SAN cell beating rate at baseline [2]: reduce
